Test results as given in patent publication US4876242A, “Human insulin-like growth factor analoges with reduced binding to serum carrier proteins and their production in yeast” (Merck & Co., Inc., priority 1987, dated 1989).
Entries after “also recorded” stand apart in the source; their conditions may differ.

Tests used:
serum carrier proteins = conditions: cited from earlier work
type I IGF receptor = assay: Inhibition of 125I-hIGF-I binding to human placental membranes (type I IGF receptor binding); conditions: FIG. 6; for IC50: human placental membranes, type I IGF receptor
[1] = target: human serum carrier proteins; assay: Inhibition of 125I-hIGF-I binding to acid stable human serum carrier proteins; conditions: FIG. 7; for IC50: acid stable human carrier proteins
3T3 cells = assay: Stimulation of DNA synthesis in 3T3 cells; assay type: cell-based, mouse; conditions: FIG. 9; for potency in stimulating DNA synthesis relative to normal/wild-type IGF-I: 3T3 cells; for potency in stimulating DNA synthesis relative to wild type IGF-I: mouse 3T3 cells
Excerpt: IGF-I stimulates DNA synthesis in mouse 3T3 cells.

[2] = tested on: native binding protein in rat serum; assay: Binding of 125I-labelled peptide to components in normal rat serum (gel chromatography); conditions: for binding to rat serum carrier proteins / native binding protein in rat serum (in words): normal rat serum, FIG. 8
Protocol: ^125 I-labelled analog IGF132 was monitored for the ability to bind components in normal rat serum. When ^125 I-IGF or ^125 I-IGF132 is chromatographed without prior incubation with serum, the radioactivity is eluted in a broad peak which migrates at the position expected for a 7.5 kD peptide (FIG. 8A). After incubation of ^125 I-IGF with rat serum, a radioactive peak appears which elutes at the position expected for a 150 kD protein, and the amount of radioactivity in the free ^125 I-αIGF peak decreases (FIG. 8B). The ^125 I-αIGF bound to the 150 kD species represents 36%±5% of the total ^125 I-IGF-I in the incubation. When the incubation is performed in the presence of 1 μg unlabelled IGF, only one radioactive peak is observed and this corresponds to unbound ^125 I-IGF (FIG. 8B (0)). Thus, under the conditions of this assay, the binding of ^125 I-IGF to the 150 kD species from rat serum is saturable.

rat adipose tissue = assay: Incorporation of 14C-glucose into lipid in rat adipose tissue in vivo; conditions: FIG. 10 part B

Substance | binding to serum carrier proteins (in words, background observation) (serum carrier proteins) | IC50 (type I IGF receptor) [nM] | IC50 [1] [nM] | affinity/potency at the type I IGF receptor compared to normal human IGF-I (in words) (type I IGF receptor) | potency in stimulating DNA synthesis relative to normal/wild-type IGF-I (3T3 cells) [times] | potency in stimulating DNA synthesis relative to wild type IGF-I (3T3 cells) | binding to human serum carrier proteins (in words) [1] | binding to rat serum carrier proteins / native binding protein in rat serum (in words) [2] | stimulation of lipid synthesis in adipose tissue in vivo (in words) (rat adipose tissue) | share bound to serum carrier proteins in normal human blood (serum carrier proteins; normal human blood) | 125I-peptide bound to the 150 kD species, share of the total in the incubation ([2]; after incubation with rat serum, FIG. 8B) | binding to rat serum carrier proteins / native binding protein in rat serum (in words) ([2]; listed as IGF)
insulin: insulin; stated not to bind to serum carrier proteins | does not bind to serum carrier proteins | – | – | – | – | – | – | – | – | – | – | –
GPQALCGAELVDALQF-R1 [IGF130] | – | 5.3 | 1.8 | – | – | – | – | – | – | – | – | –
FVNQHLCGSHLVEALYL-R1 [IGF132] | – | 12 | > 1000 | near equal affinity | 10 | about 10 fold | greatly reduced binding; also recorded: very weakly bound | greatly reduced binding; also recorded: is not observed; also recorded: only free radioactive peptide is eluted | – | – | – | –
GPETLCGAELVDALYL-R1 [IGF122] | – | 4.5 | 2.1 | – | – | – | – | – | – | – | – | –
GPQALCGAELVDALYL-R1 [IGF252] | – | 5 | 300 | – | 10 | about 10 fold | very weakly bound | – | Neither IGF-I nor IGF252 stimulate lipid synthesis; also recorded: neither IGF-I nor IGF252 stimulates the incorporation | – | – | –
GPETLCGAELVDALQF-R1 [hIGF-I, reference compound] | – | 5.6 | 0.42 | – | – | – | tightly bound | binds in a saturable fashion | Neither IGF-I nor IGF252 stimulate lipid synthesis; also recorded: neither IGF-I nor IGF252 stimulates the incorporation | greater than 99% | 36%±5% | saturable
